Laboratory results: US10611750B2, “Tetrahydroquinoline compositions as bet bromodomain inhibitors” (FORMA Therapeutics, Inc., priority 2013, dated 2020)
Like-named read-outs stand apart in the source and are kept apart here.

Columns and labels:
[1] = tested on: acute myelocytic leukemia (AML) cell line MV4-11; experiment: Oncology cell growth assay (3-day proliferation, CellTiter-Glo); assay type: cell-based; details: Homo sapiens, MV4-11 cells, 3000 cells/well, compounds listed under IC50 range headings, read-out: MV411 IC50 (gIC50, inhibition of proliferation)
In short: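 MV4-11 AML cells (RPMI 1640, 10% FBS) plated at 3000 cells/well and exposed 72 h to compound at final 10 to 0.0045 μM (3-fold series). Viability read by CellTiter-Glo luminescence; gIC50 from four-parameter logistic fit between DMSO control and no-cell background.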

[2] = molecular target: T1, BRD4 Bromodomain 2 (BRD4 BD2) (Homo sapiens, UniProt O60885); experiment: AlphaScreen binding assay, BRD4 BD2; details: His-tagged BRD4 BD2 100 nM, biotinylated H4 (1-21) K5/8/12/16 tetra-acetylated peptide 100 nM, compounds listed under IC50 range headings
T1 construct: 333-460 were cloned, expressed, and purified to homogeneity
In short: (§1)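 An AlphaScreen competition format was used with His-BRD4 BD1 or BD2 and biotin-H4 K5/8/12/16-acetyl peptide, each at matched final levels of 50 nM (BD1) or 100 nM (BD2). Incubation in HEPES/NaCl buffer with 0.1% BSA and 0.01% Triton X-100 ran ≥1 h before IC50 determination.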

[3] = molecular target: T2, BRD4 Bromodomain 1 (BRD4 BD1) (Homo sapiens, UniProt O60885); experiment: AlphaScreen binding assay, BRD4 BD1; details: His-tagged BRD4 BD1 50 nM, biotinylated H4 (1-21) K5/8/12/16 tetra-acetylated peptide 50 nM, compounds listed under IC50 range headings
T2 construct: 44-168 and BRD4 BD2
In short: as §1

Row | Compound | IC50 ([1]; MV4-11, 72 h) [µM] | IC50 [2] [µM] | IC50 [3] [µM] | IC50 ([1]; 72 hours) [µM]
1 | CC(=O)N1c2ccc(-c3cnn(C4CC4)c3)c(OC3CN(C(C)C)C3)c2CC[C@@H]1C [I-254, (S)-1-(6-(1-cyclopropyl-1H-pyrazol-4-yl)-5-(1-isopropylazetidin-3-yloxy)-2-methyl-3,4-dihydroquinolin-1(2H)-yl)ethanone] | > 1 | 0.05 to 0.5 | 1 to 10 | 
2 | CCCOc1c(-c2cc3ccccc3o2)ccc2c1CC[C@H](C)N2C(C)=O [I-504] | > 1 | ≥ 0.5 | 1 to 10 | 
3 | COC(=O)N1c2ccc(-c3cnn(C4CCNCC4)c3)c(OCC(=O)N3CCCC3)c2CC[C@@H]1C [I-466] | > 1 | 0.05 to 0.5 | 0.1 to 1 | 
4 | COC(=O)N1c2ccc(-c3cnn(C4CCNCC4)c3)c(Oc3ncccc3C#N)c2CC[C@@H]1C [I-147, (S)-methyl 5-(3-cyanopyridin-2-yloxy)-2-methyl-6-(1-(piperidin-4-yl)-1H-pyrazol-4-yl)-3,4-dihydroquinoline-1(2H)-carboxylate] | < 0.5 | 0.05 to 0.5 | 1 to 10 | 
5 | COC(=O)N1c2ccc(-c3cnn(C4CC4)c3)c(OC(F)(F)C(N)=O)c2CC[C@@H]1C [I-14, (S)-methyl 5-(2-amino-1,1-difluoro-2-oxoethoxy)-6-(1-cyclopropyl-1H-pyrazol-4-yl)-2-methyl-3,4-dihydroquinoline-1(2H)-carboxylate] | > 1 | 0.05 to 0.5 | 1 to 10 | 
6 | CC(=O)N1c2ccc(-c3ccc(S(C)(=O)=O)cn3)c(OCC(=O)N(C)C)c2CC[C@@H]1C [I-116, (S)-2-(1-acetyl-2-methyl-6-(5-(methylsulfonyl)pyridin-2-yl)-1,2,3,4-tetrahydroquinolin-5-yloxy)-N,N-dimethylacetamide] | > 1 | 0.05 to 0.5 | ≥ 10 | 
7 | CC(=O)N1c2ccc(-c3cnn(C4CCNCC4)c3)c(Oc3cc(N4CCOCC4)ncn3)c2CC[C@@H]1C [I-516] | 0.5 to 1 | 0.05 to 0.5 | 1 to 10 | 
8 | CCCOc1c(-c2cnn(C3CNC3)c2)ccc2c1CC[C@H](C)N2C(=O)C1CC1 [I-102, (S)-(6-(1-(azetidin-3-yl)-1H-pyrazol-4-yl)-2-methyl-5-propoxy-3,4-dihydroquinolin-1(2H)-yl)(cyclopropyl)methanone] | < 0.5 | < 0.05 | 0.1 to 1 | 
9 | C[C@H]1CCc2c(ccc(-c3cn(C)nn3)c2OC2CCC2)N1C(=O)C1CC1 [I-53, (S)-(5-cyclobutoxy-2-methyl-6-(1-methyl-1H-1,2,3-triazol-4-yl)-3,4-dihydroquinolin-1 (2H)-yl)(cyclopropyl)methanone] | < 0.5 | < 0.05 | 0.1 to 1 | 
10 | CC(=O)N1c2ccc(-c3cnn(C4CC4)c3)c(OCC(C)(C)CO)c2CC[C@@H]1C [I-39, (S)-1-(6-(1-cyclopropyl-1H-pyrazol-4-yl)-5-(3-hydroxy-2,2-dimethylpropoxy)-2-methyl-3,4-dihydroquinolin-1(2H)-yl)ethanone] | 0.5 to 1 | < 0.05 | 0.1 to 1 | 
11 | CCCOc1c(-c2cnn(CCO)c2)ccc2c1CC[C@H](C)N2C(C)=O [I-1, (S)-1-(6-(1-(2-hydroxyethyl)-1H-pyrazol-4-yl)-2-methyl-5-propoxy-3,4-dihydroquinolin-1 (2H)-yl)ethanone] |  | 0.05 to 0.5 | 0.1 to 1 | < 0.5
12 | CC(=O)N1c2ccc(-c3cccc(NS(C)(=O)=O)c3)c(OCC(=O)N(C)C)c2CC[C@@H]1C [I-491] | > 1 | 0.05 to 0.5 | 1 to 10 | 
13 | CC(=O)N1c2ccc(-c3cnn(C4CC4)c3)c(Oc3nc4ccccc4o3)c2CC[C@@H]1C [I-78, (S)-1-(5-(benzo[d]oxazol-2-yloxy)-6-(1-cyclopropyl-1H-pyrazol-4-yl)-2-methyl-3,4-dihydroquinolin-1(2H)-yl)ethanone] | < 0.5 | 0.05 to 0.5 | 0.1 to 1 | 
14 | C[C@H]1CCc2c(ccc(-c3cnn(C4CCNCC4)c3)c2Oc2ccccc2)N1C(=O)C1CC1 [I-168, (S)-cyclopropyl(2-methyl-5-phenoxy-6-(1-(piperidin-4-yl)-1H-pyrazol-4-yl)-3,4-dihydroquinolin-1(2H)-yl)methanone] | < 0.5 | < 0.05 | 0.1 to 1 | 
15 | COC(=O)N1c2ccc(-c3cnn(C4CCNCC4)c3)c(OCC3CCCC3)c2CC[C@@H]1C [I-462] | 0.5 to 1 | < 0.05 | 0.1 to 1 | 
16 | CC(=O)N1c2ccc(-c3cnn(C4CC4)c3)c(Oc3ncccc3C#N)c2CC[C@@H]1C [I-84, (S)-2-(1-acetyl-6-(1-cyclopropyl-1H-pyrazol-4-yl)-2-methyl-1,2,3,4-tetrahydroquinolin-5-yloxy)nicotinonitrile] | < 0.5 | < 0.05 | 0.1 to 1 | 
17 | COC(=O)N1c2ccc(-c3cnn(C4CC4)c3)c(OC3CN(C(C)C)C3)c2CC[C@@H]1C [I-252, (S)-methyl 6-(1-cyclopropyl-1H-pyrazol-4-yl)-5-(1-isopropylazetidin-3-yloxy)-2-methyl-3,4-dihydroquinoline-1(2H)-carboxylate] | > 1 | ≥ 0.5 | 1 to 10 | 
18 | CCCOc1c(-c2cnn(C3CCNCC3)c2)ccc2c1CC[C@H](C)N2C(C)=O [I-104, (S)-1-(2-methyl-6-(1-(piperidin-4-yl)-1H-pyrazol-4-yl)-5-propoxy-3,4-dihydroquinolin-1 (2H)-yl)ethanone] | < 0.5 | < 0.05 | < 0.1 | 
19 | COC(=O)N1c2ccc(-c3cnn(CCO)c3)c(OC3CCC3)c2CC[C@@H]1C [I-446] | < 0.5 | 0.05 to 0.5 | 0.1 to 1 | 
20 | CC(=O)N1c2ccc(-c3cnn(C4CC4)c3)c(OC(F)C(N)=O)c2CC[C@@H]1C (single isomer, unassigned) [I-64] |  | ≥ 0.5 | ≥ 10 | > 1
21 | C[C@H]1CCc2c(ccc(-c3ccn[nH]3)c2Oc2ccccc2)N1C(=O)C1CC1 [I-218, (S)-cyclopropyl(2-methyl-5-phenoxy-6-(1H-pyrazol-5-yl)-3,4-dihydroquinolin-1(2H)-yl)methanone] | < 0.5 | < 0.05 | 1 to 10 | 
22 | CC(=O)N1c2ccc(-c3cnn(C4CC4)c3)c(Oc3ccc(C)cn3)c2CC[C@@H]1C [I-287, (S)-1-(6-(1-cyclopropyl-1H-pyrazol-4-yl)-2-methyl-5-(5-methylpyridin-2-yloxy)-3,4-dihydroquinolin-1(2H)-yl)ethanone] | < 0.5 | < 0.05 | 0.1 to 1 | 
23 | CC(=O)N1c2ccc(-c3cnn(C4CCNCC4)c3)c(OCC(C)C)c2CC[C@@H]1C [I-423] | < 0.5 | < 0.05 | < 0.1 | 

The next lines start with results.

Row | IC50 ([1]; MV4-11, 72 h) [µM] | IC50 [2] [µM] | IC50 [3] [µM] | Compound | IC50 ([1]; 72 hours) [µM]
24 | 0.5 to 1 | 0.05 to 0.5 | 0.1 to 1 | CC(=O)N1c2ccc(-c3cnn(C4CC4)c3)c(OC[C@@H]3CCNC3)c2CC[C@@H]1C [I-602] | 
25 | > 1 | 0.05 to 0.5 | 1 to 10 | COC(=O)N1c2ccc(-c3cnn(C4CCNCC4)c3)c(Oc3ccc(C(N)=O)cn3)c2CC[C@@H]1C [I-538] | 
26 | < 0.5 | 0.05 to 0.5 | 1 to 10 | COC(=O)N1c2ccc(-c3cnn(C4CCNCC4)c3)c(Oc3ncc(C)cn3)c2CC[C@@H]1C [I-535] | 
27 | < 0.5 | 0.05 to 0.5 | 1 to 10 | CC(=O)N1c2ccc(-c3cnn(C4CC4)c3)c(Oc3ccccc3)c2CCC1C (stereo not drawn) [I-597] | 
28 | > 1 | 0.05 to 0.5 | 1 to 10 | COC(=O)N1c2ccc(-c3cnn(CCS(C)(=O)=O)c3)c(Oc3cnccn3)c2CC[C@@H]1C [I-558] | 
29 | < 0.5 | 0.05 to 0.5 | 0.1 to 1 | C[C@H]1CCc2c(ccc(-c3cnn(C4CCNCC4)c3)c2Oc2ncccc2C#N)N1C(=O)C1CC1 [I-540] | 
30 | < 0.5 | 0.05 to 0.5 | 1 to 10 | COC(=O)N1c2ccc(-c3cnn(C4CCNCC4)c3)c(Oc3ccnc(C(F)(F)F)n3)c2CC[C@@H]1C [I-529] | 
31 | < 0.5 | 0.05 to 0.5 | 1 to 10 | COC(=O)N1c2ccc(-c3cnn(C4CCNCC4)c3)c(Oc3ccc(C(F)(F)F)cn3)c2CC[C@@H]1C [I-524] | 
32 | 0.5 to 1 | 0.05 to 0.5 | 1 to 10 | COC(=O)N1c2ccc(-c3cnn(CC(C)(C)O)c3)c(Oc3ncccc3C#N)c2CC[C@@H]1C [I-567] | 
33 | < 0.5 | 0.05 to 0.5 | 1 to 10 | COC(=O)N1c2ccc(-c3cnn(C4CCNCC4)c3)c(Oc3cccc(C#N)c3)c2CC[C@@H]1C [I-596] | 
34 | 0.5 to 1 | 0.05 to 0.5 | 1 to 10 | COC(=O)N1c2ccc(-c3cnn(CCS(C)(=O)=O)c3)c(Oc3ncc(F)cn3)c2CC[C@@H]1C [I-574] | 
35 | < 0.5 | 0.05 to 0.5 | 0.1 to 1 | COC(=O)N1c2ccc(-c3cnn(C4CC4)c3)c(Oc3ncc(C)cn3)c2CC[C@@H]1C [I-585] | 
36 | 0.5 to 1 | 0.05 to 0.5 | 1 to 10 | COC(=O)N1c2ccc(-c3cnn(CC(C)(C)O)c3)c(Oc3cnccn3)c2CC[C@@H]1C [I-559] | 
37 | > 1 | 0.05 to 0.5 | 1 to 10 | COC(=O)N1c2ccc(-c3cnn(C4CC4)c3)c(Oc3ccc(C(F)(F)F)cn3)c2CC[C@@H]1C [I-557] | 
